Data: ChEMBL document CHEMBL4619796, “Discovery of 3-Quinazolin-4(3H)-on-3-yl-2,N-dimethylpropanamides as Orally Active and Selective PI3Kα Inhibitors” (ACS Med Chem Lett, 2020)

Columns and labels:
[1] = Inhibition of PI3K in human MCF7 cells assessed as reduction in AKT phosphorylation at residue S473 incubated for 2 hrs followed by insulin addition by ELISA; assay type: cell-based; details: MCF7, 2 h
Homo sapiens [2] = organism: Homo sapiens; assay: (§1) Selectivity ratio of IC50 for PI3Kbeta (unknown origin) using PIP2:3PS peptide as substrate preincubated for 15 mins followed by ATP addition at Km concentration and further incubated for 120 mins by ADP-Glo assay to IC50 for PI3Kalpha (unknown origin) using PIP2:3PS peptide as substrate preincubated for 15 mins followed by ATP addition at Km concentration and further incubated for 150 mins by ADP-Glo assay
Homo sapiens [3] = organism: Homo sapiens; assay: as §1, with “PI3Kdelta” for “PI3Kbeta”
[4] = target: Phosphatidylinositol 4,5-bisphosphate 3-kinase catalytic subunit alpha isoform (Homo sapiens, UniProt P42336); assay: Inhibition of PI3Kalpha (unknown origin) using PIP2:3PS peptide as substrate preincubated for 15 mins followed by ATP addition at Km concentration and further incubated for 150 mins by ADP-Glo assay
Phosphatidylinositol 4,5-bisphosphate 3-kinase catalytic subunit alpha isoform, sequence (P42336 whole entry, canonical isoform): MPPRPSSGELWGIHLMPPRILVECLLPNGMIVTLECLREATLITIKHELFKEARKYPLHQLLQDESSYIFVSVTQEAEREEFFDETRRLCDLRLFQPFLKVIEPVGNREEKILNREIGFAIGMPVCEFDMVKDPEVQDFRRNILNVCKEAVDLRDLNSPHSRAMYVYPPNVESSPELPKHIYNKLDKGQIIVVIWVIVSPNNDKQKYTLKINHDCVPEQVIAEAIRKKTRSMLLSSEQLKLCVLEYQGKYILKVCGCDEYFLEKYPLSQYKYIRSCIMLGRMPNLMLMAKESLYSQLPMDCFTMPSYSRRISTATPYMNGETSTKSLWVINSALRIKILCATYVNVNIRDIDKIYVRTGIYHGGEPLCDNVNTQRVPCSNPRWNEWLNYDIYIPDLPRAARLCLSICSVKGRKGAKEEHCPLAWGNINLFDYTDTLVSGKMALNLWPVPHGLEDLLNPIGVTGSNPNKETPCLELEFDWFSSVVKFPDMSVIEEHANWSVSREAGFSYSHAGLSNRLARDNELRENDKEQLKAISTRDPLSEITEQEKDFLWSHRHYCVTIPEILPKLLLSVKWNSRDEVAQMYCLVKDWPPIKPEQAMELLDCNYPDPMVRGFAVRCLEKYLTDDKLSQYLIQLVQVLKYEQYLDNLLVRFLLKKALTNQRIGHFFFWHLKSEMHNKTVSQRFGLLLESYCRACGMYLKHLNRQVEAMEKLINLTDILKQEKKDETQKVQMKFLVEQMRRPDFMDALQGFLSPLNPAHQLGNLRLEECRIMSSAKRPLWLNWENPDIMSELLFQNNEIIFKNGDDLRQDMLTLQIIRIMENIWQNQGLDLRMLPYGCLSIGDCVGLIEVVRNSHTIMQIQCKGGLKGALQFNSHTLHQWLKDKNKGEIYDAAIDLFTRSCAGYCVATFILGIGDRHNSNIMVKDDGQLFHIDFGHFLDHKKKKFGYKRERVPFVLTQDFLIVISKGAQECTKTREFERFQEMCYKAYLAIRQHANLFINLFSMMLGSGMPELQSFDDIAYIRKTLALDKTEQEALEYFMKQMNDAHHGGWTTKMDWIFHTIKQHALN

Homo sapiens [5] = organism: Homo sapiens; assay: as §1, with “PI3Kgamma” for “PI3Kbeta”

| Structure (SMILES) | IC50 [1] | Ratio IC50 (Homo sapiens [2]) | Ratio IC50 (Homo sapiens [3]) | IC50 [4] | Ratio IC50 (Homo sapiens [5]) |
| --- | --- | --- | --- | --- | --- |
| CNC(=O)[C@H](C)Cn1cnc2ccc(-c3cnc(OC)c(NS(=O)(=O)c4cc(C(F)(F)F)cc(C(F)(F)F)c4)c3)cc2c1=O | – | 109 | 19.4 | 20.8 nM | 17.3 |
| CNC(=O)[C@@H](C)Cn1cnc2ccc(-c3cnc(OC)c(NS(=O)(=O)c4ccc(F)cc4Cl)c3)cc2c1=O | – | – | – | 2.3 nM | – |
| COc1ncc(-c2ccc3ncn(CC(C(N)=O)C(C)C)c(=O)c3c2)cc1NS(=O)(=O)c1ccc(F)cc1Cl (racemic) | 125 nM | 32.6 | – | – | – |
| CNC(=O)[C@H](C)Cn1cnc2ccc(-c3cnc(OC)c(NS(=O)(=O)c4sccc4C)c3)cc2c1=O | – | 43.1 | – | 4.1 nM | – |
| CNC(=O)[C@H](C)Cn1cnc2ccc(-c3cnc(OC(C)C)c(NS(=O)(=O)c4ccc(F)cc4Cl)c3)cc2c1=O | 387 nM | – | – | – | – |
| CNC(=O)C(C)Cn1cnc2ccc(-c3cnc(C(F)(F)F)c(NS(=O)(=O)c4ccc(F)cc4Cl)c3)cc2c1=O (racemic) | 972 nM | 196 | – | 0.6 nM | – |
| COc1ncc(-c2ccc3ncn(C[C@@H](C)C(=O)NC4CC4(F)F)c(=O)c3c2)cc1NS(=O)(=O)c1ccc(F)cc1Cl (stereo partly specified) | – | 116 | – | 6.2 nM | – |
| COc1ncc(-c2ccc3ncn(CC(F)(F)C(N)=O)c(=O)c3c2)cc1NS(=O)(=O)c1ccc(F)cc1Cl | – | 46.6 | 2.69 | 2.7 nM | 3.15 |
| CNC(=O)[C@H](C)Cn1cnc2ccc(-c3cnc(OC4CC4)c(NS(=O)(=O)c4ccc(F)cc4Cl)c3)cc2c1=O | 55.3 nM | – | – | – | – |
| CCOc1ncc(-c2ccc3ncn(C[C@@H](C)C(=O)NC)c(=O)c3c2)cc1NS(=O)(=O)c1ccc(F)cc1Cl | 116 nM | 153 | – | 13.7 nM | – |
| COc1ncc(-c2ccc3ncn(C[C@@H](C)C(=O)NC4COC4)c(=O)c3c2)cc1NS(=O)(=O)c1ccc(F)cc1Cl | 190 nM | 262 | – | 2.1 nM | – |

Continued, values first:

| IC50 [1] | Ratio IC50 (Homo sapiens [2]) | Ratio IC50 (Homo sapiens [3]) | IC50 [4] | Ratio IC50 (Homo sapiens [5]) | Structure (SMILES) |
| --- | --- | --- | --- | --- | --- |
| 52.3 nM | 19.3 | – | – | – | CCC(Cn1cnc2ccc(-c3cnc(OC)c(NS(=O)(=O)c4ccc(F)cc4Cl)c3)cc2c1=O)C(N)=O (racemic) |
| > 1000 nM | – | – | – | – | CNC(=O)[C@H](C)Cn1cnc2ccc(-c3cnc(OC)c(NS(=O)(=O)c4cccnc4)c3)cc2c1=O |
| > 1000 nM | 94.9 | – | – | – | CNC(=O)C(C)Cn1cnc2ccc(-c3cnc(OC(F)(F)F)c(NS(=O)(=O)c4ccc(F)cc4Cl)c3)cc2c1=O (racemic) |
| – | 16.6 | 0.78 | 19.6 nM | 1.06 | COc1ncc(-c2ccc3ncn(C[C@@H](C)C(=O)N(C)C(C)C)c(=O)c3c2)cc1NS(=O)(=O)c1ccc(F)cc1Cl |
| 9.43 nM | 30 | 1.91 | 1.1 nM | – | COc1ncc(-c2ccc3ncn(CCCC(N)=O)c(=O)c3c2)cc1NS(=O)(=O)c1ccc(F)cc1Cl |
| – | 5.97 | 0.63 | 25.8 nM | 1.04 | CCN(CC)C(=O)[C@H](C)Cn1cnc2ccc(-c3cnc(OC)c(NS(=O)(=O)c4ccc(F)cc4Cl)c3)cc2c1=O |
| > 1000 nM | 283 | – | 19.3 nM | – | CNC(=O)[C@H](C)Cn1cnc2ccc(-c3cnc(N)c(NS(=O)(=O)c4ccc(F)cc4Cl)c3)cc2c1=O |
| – | 59.5 | – | 8.4 nM | – | CNC(=O)[C@H](C)Cn1cnc2ccc(-c3cnc(N(C)C)c(NS(=O)(=O)c4ccc(F)cc4Cl)c3)cc2c1=O |
| – | 18.3 | 0.38 | 11.5 nM | 0.71 | COc1ncc(-c2ccc3ncn(C[C@@H](C)C(=O)N4CCOCC4)c(=O)c3c2)cc1NS(=O)(=O)c1ccc(F)cc1Cl |
| > 1000 nM | – | – | > 1000 nM | – | CNC(=O)[C@H](C)Cn1cnc2ccc(-c3cnc(COC)c(NS(=O)(=O)c4ccc(F)cc4Cl)c3)cc2c1=O |
| – | 6.62 | – | 10 nM | – | CNC(=O)[C@H](C)Cn1cnc2ccc(-c3cnc(OC)c(NS(=O)(=O)c4ccc(Cl)c(Cl)c4)c3)cc2c1=O |
